We go through three molecules from ChEMBL document CHEMBL5380808, “Design, Synthesis, and Biological Activity of Marinacarboline Analogues as STAT3 Pathway Inhibitors for Docetaxel-Resistant Triple-Negative Breast Cancer” (J Med Chem, 2023).

Activity calls are given as the source filed them. The calls are words filed in the database; no cut-off is given here.

Test [1] in a line: Antiproliferative activity against […] cells assessed as reduction in cell viability incubated for 72 hrs by MTT assay. The test is classed as functional, cell-based. For orientation: Formazan colour is commonly taken as a measure of viable cells.
For test [2], the system named is MDA-MB-231. Description: Antitumor activity against docetaxel-resistant human MDA-MB-231-DTR cells xenografted in BALB/c mouse assessed as tumor growth inhibition at 5 mg/kg, ip daily for 12 days. Particulars: time 12.0 day. The test is classed as functional, organism-based. Background: Xenograft models place foreign cells or tissue in a host animal.
Test [3] concerns MDA-MB-231. Description: Antiproliferative activity against human MDA-MB-231 cells assessed as reduction in cell viability incubated for 72 hrs by MTT assay. It is filed as functional, cell-based. The conditions noted are these: MDA-MB-231, 72 h.
In test [4] the target is Signal transducer and activator of transcription 3 (Homo sapiens) (UniProt P40763). As to the kind of experiment: Binding affinity to STAT3 in docetaxel-resistant human MDA-MB-231-DTR cells at 20 uM incubated for 1 hrs by streptavidin bead based pull-down assay. The test is classed as cell-based.
Sequence of Signal transducer and activator of transcription 3 (Homo sapiens) (P40763 whole entry): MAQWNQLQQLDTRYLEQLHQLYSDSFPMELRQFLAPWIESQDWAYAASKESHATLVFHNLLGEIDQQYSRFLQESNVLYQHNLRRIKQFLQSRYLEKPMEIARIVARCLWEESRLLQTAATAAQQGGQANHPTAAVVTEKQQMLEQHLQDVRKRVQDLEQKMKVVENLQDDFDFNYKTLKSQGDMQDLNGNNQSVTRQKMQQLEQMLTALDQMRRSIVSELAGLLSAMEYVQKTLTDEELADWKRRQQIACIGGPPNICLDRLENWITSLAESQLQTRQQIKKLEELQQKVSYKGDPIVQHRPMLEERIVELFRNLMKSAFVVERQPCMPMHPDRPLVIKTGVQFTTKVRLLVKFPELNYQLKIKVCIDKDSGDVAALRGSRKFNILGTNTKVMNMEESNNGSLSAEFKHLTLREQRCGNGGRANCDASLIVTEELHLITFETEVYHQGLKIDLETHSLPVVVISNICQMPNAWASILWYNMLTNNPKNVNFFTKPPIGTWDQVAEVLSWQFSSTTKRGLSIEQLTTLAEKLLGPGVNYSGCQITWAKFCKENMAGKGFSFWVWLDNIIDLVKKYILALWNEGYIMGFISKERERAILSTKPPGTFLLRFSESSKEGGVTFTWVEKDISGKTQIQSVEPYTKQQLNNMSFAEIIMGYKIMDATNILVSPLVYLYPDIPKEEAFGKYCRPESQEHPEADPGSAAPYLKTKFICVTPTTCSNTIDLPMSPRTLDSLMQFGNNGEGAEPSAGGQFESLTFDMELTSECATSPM
Test [5] can be described thus: Antiproliferative activity against docetaxel-resistant human MDA-MB-231-DTR cells assessed as reduction in cell viability incubated for 72 hrs by sulforhodamine B assay. The conditions noted are these: MDA-MB-231, 72 h. The test is classed as functional, cell-based. (In general: In SRB staining, fixed cells bind dye roughly in proportion to their protein.)
Test [6] is described as follows: Fold resistance, ratio of IC50 for antiproliferative activity against docetaxel-resistant human MDA-MB-231-DTR cells to IC50 for antiproliferative activity against human MDA-MB-231 cells. The test is classed as functional.
For test [7], the system named is MDA-MB-231. As to the kind of experiment: Antiproliferative activity against SiRNA mediated STAT3 knockdown docetaxel-resistant human MDA-MB-231-DTR cells assessed as restoration of drug sensitivity by measuring cell viability at 0.5 to 4 uM incubated for 72 hrs by MTT assay. The conditions noted are these: dose 0.5-4 µM. It is filed as functional, cell-based.
The subject of test [8] is MDA-MB-231. Description: Antiproliferative activity against human MDA-MB-231 cells transfected with STAT3 plasmid to overexpress STAT3 assessed as effect on cell viability at 10 to 80 nM incubated for 72 hrs by MTT assay. It is filed as functional, cell-based. The conditions noted are these: dose 10-80 nM.
Test [9] can be described thus: Synergistic antiproliferative activity against docetaxel-resistant human MDA-MB-231-DTR cells assessed as combination index at 1 uM incubated for 72 hrs in presence of 2 uM of N-(2-(1H-Indol-3-yl)ethyl)-1-(4-bromobenzoyl)-9H-pyrido(3,4-b)indole-3-carboxamide by Chou-Talalay method. It is filed as functional.
Test [10] in a line: Synergistic antiproliferative activity against docetaxel-resistant human MDA-MB-231-DTR cells assessed as combination index at 1 uM incubated for 72 hrs in presence of 4 uM of N-(2-(1H-Indol-3-yl)ethyl)-1-(4-bromobenzoyl)-9H-pyrido(3,4-b)indole-3-carboxamide by Chou-Talalay method. It is filed as functional.
A short description of test [11]: Synergistic antiproliferative activity against docetaxel-resistant human MDA-MB-231-DTR cells assessed as combination index at 1 uM incubated for 72 hrs in presence of 8 uM of N-(2-(1H-Indol-3-yl)ethyl)-1-(4-bromobenzoyl)-9H-pyrido(3,4-b)indole-3-carboxamide by Chou-Talalay method. It is filed as functional.
The nature of test [12]: Synergistic antiproliferative activity against docetaxel-resistant human MDA-MB-231-DTR cells assessed as combination index at 2 uM incubated for 72 hrs in presence of 2 uM of N-(2-(1H-Indol-3-yl)ethyl)-1-(4-bromobenzoyl)-9H-pyrido(3,4-b)indole-3-carboxamide by Chou-Talalay method. The test is classed as functional.
Test [13] in a line: Synergistic antiproliferative activity against docetaxel-resistant human MDA-MB-231-DTR cells assessed as combination index at 2 uM incubated for 72 hrs in presence of 4 uM of N-(2-(1H-Indol-3-yl)ethyl)-1-(4-bromobenzoyl)-9H-pyrido(3,4-b)indole-3-carboxamide by Chou-Talalay method. The test is classed as functional.
Test [14] can be described thus: Synergistic antiproliferative activity against docetaxel-resistant human MDA-MB-231-DTR cells assessed as combination index at 2 uM incubated for 72 hrs in presence of 8 uM of N-(2-(1H-Indol-3-yl)ethyl)-1-(4-bromobenzoyl)-9H-pyrido(3,4-b)indole-3-carboxamide by Chou-Talalay method. The test is classed as functional.
Test [15] in a line: Synergistic antiproliferative activity against docetaxel-resistant human MDA-MB-231-DTR cells assessed as combination index at 4 uM incubated for 72 hrs in presence of 2 uM of N-(2-(1H-Indol-3-yl)ethyl)-1-(4-bromobenzoyl)-9H-pyrido(3,4-b)indole-3-carboxamide by Chou-Talalay method. It is filed as functional.
The nature of test [16]: Synergistic antiproliferative activity against docetaxel-resistant human MDA-MB-231-DTR cells assessed as combination index at 4 uM incubated for 72 hrs in presence of 4 uM of N-(2-(1H-Indol-3-yl)ethyl)-1-(4-bromobenzoyl)-9H-pyrido(3,4-b)indole-3-carboxamide by Chou-Talalay method. It is filed as functional.
The nature of test [17]: Synergistic antiproliferative activity against docetaxel-resistant human MDA-MB-231-DTR cells assessed as combination index at 4 uM incubated for 72 hrs in presence of 8 uM of N-(2-(1H-Indol-3-yl)ethyl)-1-(4-bromobenzoyl)-9H-pyrido(3,4-b)indole-3-carboxamide by Chou-Talalay method. The test is classed as functional.
Test [18] has as its system MDA-MB-231. As to the kind of experiment: Antitumor activity against docetaxel-resistant human MDA-MB-231-DTR cells xenografted in BALB/c mouse assessed as reduction in tumor volume at 5 mg/kg, ip daily for 12 days in presence of N-(2-(1H-Indol-3-yl)ethyl)-1-(4-bromobenzoyl)-9H-pyrido(3,4-b)indole-3-carboxamide. The conditions noted are these: time 12.0 day. It is filed as functional, organism-based.

Test [19] concerns MDA-MB-231. Description: Antitumor activity against docetaxel-resistant human MDA-MB-231-DTR cells xenografted in BALB/c mouse assessed as reduction in tumor weight at 5 mg/kg, ip daily for 12 days in presence of N-(2-(1H-Indol-3-yl)ethyl)-1-(4-bromobenzoyl)-9H-pyrido(3,4-b)indole-3-carboxamide. The test is classed as functional, organism-based. The conditions noted are these: time 12.0 day.

Test [20] can be described thus: Antiproliferative activity against docetaxel-resistant human MDA-MB-231-DTR cells assessed as reduction in cell viability incubated for 72 hrs by MTT assay. It is filed as functional, cell-based. The conditions noted are these: MDA-MB-231, 72 h.

As to `CC(=O)O[C@H]1C(=O)[C@@]2(C)[C@H]([C@H](OC(=O)c3ccccc3)[C@]3(O)C[C@H](OC(=O)[C@H](O)[C@@H](NC(=O)c4ccccc4)c4ccccc4)C(C)=C1C3(C)C)[C@]1(OC(C)=O)CO[C@@H]1C[C@@H]2O` [PACLITAXEL], the values for the IC50 (in test [1]; in the test on MDA-MB-231 [3]) were 4680 nM and 70 nM, respectively. In the test with MDA-MB-231 [2], the outcome was inactive.
For the molecule `O=C(CCCC[C@@H]1SC[C@@H]2NC(=O)N[C@@H]21)NCCn1cc(COc2ccc3[nH]c4c(C(=O)c5ccc(Br)cc5)nc(C(=O)NCCc5c[nH]c6ccccc56)cc4c3c2)nn1`, in test [4], the outcome was Active.
`CC(=O)O[C@@]12CO[C@@H]1C[C@H](O)[C@@]1(C)C(=O)[C@H](O)C3=C(C)[C@@H](OC(=O)[C@H](O)[C@@H](NC(=O)OC(C)(C)C)c4ccccc4)C[C@@](O)([C@@H](OC(=O)c4ccccc4)[C@H]21)C3(C)C` [DOCETAXEL ANHYDROUS]: the values for the IC50 (in test [5]; in the test on MDA-MB-231 [3]; in test [20]) were 1980 nM, 20 nM and 4680 nM, respectively. The “Ratio IC50” value in test [6] was 103.5. Further, the result with MDA-MB-231 [7], with MDA-MB-231 [18] and in the test on MDA-MB-231 [19] was Active. Moreover, the outcome in the test with MDA-MB-231 [8] and with MDA-MB-231 [2] was inactive. The CI amounted to 0.26 in test [9]; 0.38 in test [10]; 0.66 in test [11]; 0.23 in test [12]; 0.53 in [13]; 0.45 in test [14]. Further, the results for the CI in test [15], in test [16] and in test [17] were 0.32, 0.37 and 0.32, respectively.
